Measurements from US20230085578A1, “SYSTEMS AND METHODS FOR TRIPLE-PARAMETRIC OPTICAL MAPPING” (The George Washington University, priority 2021, published 2023).
Where two headings read alike, the source gives them in different places.

Test system: mouse hearts
Test: Triple parametric optical mapping (Vm, Ca2+, NADH) of Langendorff-perfused mouse hearts during drug treatment
Parameters: Effect on contractions of the heart (electromechanical uncoupling): dose or concentration left out as unconfirmed
Conditions: for APD80 (action potential duration) / AR (anisotropic ratio, CVL to CVT) / CVL (longitudinal conduction velocity) / CVT (transverse conduction velocity) / Ca2+ RT (rise time) / Ca t (calcium decay time constant) / CaTD80 (calcium transient duration) / NADH fluorescence intensity (normalized to first recording of the heart) / Vm RT (rise time) / Vm-Ca2+ delay: Blebbistatin 15 μM, Verapamil 1 μM, mean±SEM
Description: Langendorff perfusion: Adult male and female mice on C57BL/6 background were used in this study. Mice were anesthetized by isoflurane inhalation and cervical dislocation was performed. Hearts were quickly excised following thoracotomy and the aorta was cannulated. The heart was attached to a Langendorff perfusion system, hung in a vertical position in a temperature-controlled bath and perfused with a modified Tyrode's solution containing (in mM) 130 NaCl, 24 NaHCO3, 1.2 NaH2PO4, 1 MgCl2, 5.6 Glucose, 4 KCl, 1.8 CaCl2, pH 7.40 and bubbled with carbogen (95% 02 and 5% CO2) at 37° C. Perfusion pressure was maintained at ˜80 mmHg by adjusting the flow rate between 1 and 1.5 ml/min. A platinum bipolar electrode was placed at the center of the anterior surface residing the middle of the field of view. Gentle pressure was applied to the back of the heart as it was pushed up to the front optical glass of the bath using a paddle, allowing the pacing electrode to be held in place. Electrical stimuli were applied to determine the threshold of pacing. Hearts were paced at 1.5× pacing threshold amplitude and 2 ms stimulus duration, only during optical recording. Hearts were paced at varying rates as listed in the figures to determine the restitution properties of the heart under each condition.
Optical Mapping: The heart was subjected to a 10 min equilibration period followed by staining with the voltage- and calcium-sensitive dyes. A 1 ml mixture of RH237 ([…] Tyrode's solution, Biotium 61018) was prepared and immediately injected into the dye port above the cannula over a 3-5 min period. This was followed by a 5 min washout period. Similarly, a 1 ml mixture of Rhod2-AM (30 ul of 1 mg/ml dye stock solution+[…] Tyrode's solution, Thermo Fisher Scientific R1244 and Biotium 59005, respectively) was prepared and immediately injected into the dye port over a 3-5 min period. This was followed by 5 min dye washout period.
The heart was then illuminated by two LED excitation light sources at 365 nm and 520±5 nm wavelengths. While the former induces autofluorescence of NADH in the tissue, the latter excites both RH237 and Rhod2-AM dyes. Control optical recordings of NADH, Vm, and Ca^2+ were simultaneously acquired at 1 kHz sampling rate. NADH, Vm, and Ca^2+ are indicative of […].
[…] […] Optical recordings were once again acquired for each of these conditions as described above.
Data Analysis: Optical data of NADH, transmembrane potential and calcium were analyzed using a custom Matlab software, Rhythm 3.0, which is available in an open-source format on Github. Rhythm 3.0 which is an upgraded version of Rhythm 1.2, incorporates NADH visualization and analysis features as well as the ability to calculate delay in transmembrane potential to intracellular calcium activation (Vm-Ca^2+ Delay). Rhythm software was written to analyze data formats generated by SciMedia systems but can be modified to analyze other data formats.
Ten different parameters were measured from the 3 optical signals that were simultaneously recorded under each condition using the Rhythm 3.0 software to determine MECC. The ten parameters include, from transmembrane potential: (1) rise time (Vm RT), (2) action potential duration (APD80), (3) transverse and (4) longitudinal conduction velocity (CVT and CVL) and (5) anisotropic ratio (AR), from intracellular calcium: (6) rise time (Ca^2+ RT), (7) calcium transient duration (CaTD80), (8) calcium decay time constant (t), (9) Vm-Ca^2+ delay and (10) NADH fluorescence intensity.

In the case of `Nc1ccncc1` [4-AP, 4-aminopyridine], the “BCL at which pacing of the hearts was prevented (no 1:1 capture)” value (4-AP 7 mM in presence of blebbistatin) is reported as < 125 ms, the “Change in CVT (in words)” value (150 ms BCL, 4-AP 7 mM vs blebbistatin) is reported as “slowed” and the “Change in Ca2+ RT (in words)” value (150 ms BCL, blebbistatin vs Control, 4-AP 7 mM vs blebbistatin) is reported as “prolonged”. For the same compound, the “APD80 (action potential duration)” value (BCL 125, 4-AP 7 mM) was 69.09 ± 7.52, the “AR (anisotropic ratio, CVL to CVT)” value (BCL 125, 4-AP 7 mM) was 1.80 ± 0.19 and the “CVL (longitudinal conduction velocity)” value (BCL 125, 4-AP 7 mM) was 0.47 ± 0.07. The “CVT (transverse conduction velocity)” value (BCL 125, 4-AP 7 mM) was 0.27 ± 0.05, the “Ca2+ RT (rise time)” value (BCL 125, 4-AP 7 mM) was 6.82 ± 1.39 and the “Ca t (calcium decay time constant)” value (BCL 125, 4-AP 7 mM) was 27.106 ± 6.26. For the same compound, the “CaTD80 (calcium transient duration)” value (BCL 125, 4-AP 7 mM) was 79.32 ± 2.28, the “NADH fluorescence intensity (normalized to first recording of the heart)” value (BCL 125, 4-AP 7 mM) was 0.98 ± 0.07 and the “Vm RT (rise time)” value (BCL 125, 4-AP 7 mM) was 5.15 ± 0.29. The “Vm-Ca2+ delay” value (BCL 125, 4-AP 7 mM) was −1.88 ± 1.79, the “APD80 (action potential duration)” value (BCL 150, 4-AP 7 mM) was 78.13 ± 3.52 and the “AR (anisotropic ratio, CVL to CVT)” value (BCL 150, 4-AP 7 mM) was 1.90 ± 0.45. The “CVL (longitudinal conduction velocity)” value (BCL 150, 4-AP 7 mM) was 0.53 ± 0.09, the “CVT (transverse conduction velocity)” value (BCL 150, 4-AP 7 mM) was 0.28 ± 0.05 and the “Ca2+ RT (rise time)” value (BCL 150, 4-AP 7 mM) was 7.05 ± 1.03. The “Ca t (calcium decay time constant)” value (BCL 150, 4-AP 7 mM) was 30.94 ± 5.51, the “CaTD80 (calcium transient duration)” value (BCL 150, 4-AP 7 mM) was 88.37 ± 6.37 and the “NADH fluorescence intensity (normalized to first recording of the heart)” value (BCL 150, 4-AP 7 mM) was 0.97 ± 0.06. For the same compound, the “Vm RT (rise time)” value (BCL 150, 4-AP 7 mM) was 4.94 ± 0.63, the “Vm-Ca2+ delay” value (BCL 150, 4-AP 7 mM) was −1.71 ± 2.13 and the “APD80 (action potential duration)” value (BCL 200, 4-AP 7 mM) was 84.56 ± 6.68. For the same compound, the “AR (anisotropic ratio, CVL to CVT)” value (BCL 200, 4-AP 7 mM) was 1.97 ± 0.37, the “CVL (longitudinal conduction velocity)” value (BCL 200, 4-AP 7 mM) was 0.66 ± 0.06 and the “CVT (transverse conduction velocity)” value (BCL 200, 4-AP 7 mM) was 0.32 ± 0.05. The “Ca2+ RT (rise time)” value (BCL 200, 4-AP 7 mM) was 7.04 ± 1.57, the “Ca t (calcium decay time constant)” value (BCL 200, 4-AP 7 mM) was 37.11 ± 11.58 and the “CaTD80 (calcium transient duration)” value (BCL 200, 4-AP 7 mM) was 96.41 ± 8.18. The “NADH fluorescence intensity (normalized to first recording of the heart)” value (BCL 200, 4-AP 7 mM) was 0.97 ± 0.07, the “Vm RT (rise time)” value (BCL 200, 4-AP 7 mM) was 4.79 ± 0.23 and the “Vm-Ca2+ delay” value (BCL 200, 4-AP 7 mM) was −1.48 ± 1.38. The “Change in APD80 (in words)” value (all tested pacing rates, vs blebbistatin) was “prolonged”.
`COc1ccc(CCN(C)CCCC(C#N)(c2ccc(OC)c(OC)c2)C(C)C)cc1OC` (centres unmarked) [Verapamil, verapamil] was tested, and the “APD80 (action potential duration)” value (BCL 80) was 31.06 ± 0.00, the “CVL (longitudinal conduction velocity)” value (BCL 80) was 0.28 ± 0.00 and the “CVT (transverse conduction velocity)” value (BCL 80) was 0.21 ± 0.00. The “Ca2+ RT (rise time)” value (BCL 80) was 8.09 ± 0.00, the “Ca t (calcium decay time constant)” value (BCL 80) was 13.71 ± 0.00 and the “CaTD80 (calcium transient duration)” value (BCL 80) was 60.74 ± 0.00. For the same compound, the “NADH fluorescence intensity (normalized to first recording of the heart)” value (BCL 80) was 1.04 ± 0.00, the “Vm-Ca2+ delay” value (BCL 80) was −2.81 ± 0.00 and the “APD80 (action potential duration)” value (BCL 90) was 44.72 ± 9.21. For the same compound, the “CVL (longitudinal conduction velocity)” value (BCL 90) was 0.35 ± 0.03, the “CVT (transverse conduction velocity)” value (BCL 90) was 0.18 ± 0.04 and the “Ca2+ RT (rise time)” value (BCL 90) was 8.16 ± 1.36. The “Ca t (calcium decay time constant)” value (BCL 90) was 17.15 ± 1.92, the “CaTD80 (calcium transient duration)” value (BCL 90) was 63.46 ± 2.71 and the “NADH fluorescence intensity (normalized to first recording of the heart)” value (BCL 90) was 0.98 ± 0.07. The “Vm RT (rise time)” value (BCL 90) was 4.65 ± 0.10, the “Vm-Ca2+ delay” value (BCL 90) was −6.07 ± 2.54 and the “APD80 (action potential duration)” value (BCL 100) was 45.75 ± 10.51. The “CVL (longitudinal conduction velocity)” value (BCL 100) was 0.60 ± 0.02, the “CVT (transverse conduction velocity)” value (BCL 100) was 0.23 ± 0.03 and the “Ca2+ RT (rise time)” value (BCL 100) was 9.54 ± 0.43. For the same compound, the “Ca t (calcium decay time constant)” value (BCL 100) was 20.41 ± 3.36, the “CaTD80 (calcium transient duration)” value (BCL 100) was 69.61 ± 3.02 and the “NADH fluorescence intensity (normalized to first recording of the heart)” value (BCL 100) was 0.99 ± 0.08. For the same compound, the “Vm RT (rise time)” value (BCL 100) was 4.70 ± 0.39, the “Vm-Ca2+ delay” value (BCL 100) was −5.22 ± 1.73 and the “APD80 (action potential duration)” value (BCL 125, 4-AP 7 mM) was 49.46 ± 6.20. For the same compound, the “CVL (longitudinal conduction velocity)” value (BCL 125, 4-AP 7 mM) was 0.59 ± 0.03, the “CVT (transverse conduction velocity)” value (BCL 125, 4-AP 7 mM) was 0.28 ± 0.03 and the “Ca2+ RT (rise time)” value (BCL 125, 4-AP 7 mM) was 8.28 ± 0.96. The “Ca t (calcium decay time constant)” value (BCL 125, 4-AP 7 mM) was 32.14 ± 11.32, the “CaTD80 (calcium transient duration)” value (BCL 125, 4-AP 7 mM) was 77.16 ± 7.51 and the “NADH fluorescence intensity (normalized to first recording of the heart)” value (BCL 125, 4-AP 7 mM) was 0.99 ± 0.08. The “Vm RT (rise time)” value (BCL 125, 4-AP 7 mM) was 4.57 ± 0.25, the “Vm-Ca2+ delay” value (BCL 125, 4-AP 7 mM) was −7.06 ± 4.13 and the “APD80 (action potential duration)” value (BCL 150, 4-AP 7 mM) was 54.39 ± 11.88. For the same compound, the “CVL (longitudinal conduction velocity)” value (BCL 150, 4-AP 7 mM) was 0.67 ± 0.02, the “CVT (transverse conduction velocity)” value (BCL 150, 4-AP 7 mM) was 0.29 ± 0.01 and the “Ca2+ RT (rise time)” value (BCL 150, 4-AP 7 mM) was 9.31 ± 0.93. For the same compound, the “Ca t (calcium decay time constant)” value (BCL 150, 4-AP 7 mM) was 32.38 ± 4.88, the “CaTD80 (calcium transient duration)” value (BCL 150, 4-AP 7 mM) was 89.183 ± 11.79 and the “NADH fluorescence intensity (normalized to first recording of the heart)” value (BCL 150, 4-AP 7 mM) was 0.99 ± 0.08. For the same compound, the “Vm RT (rise time)” value (BCL 150, 4-AP 7 mM) was 4.70 ± 0.46, the “Vm-Ca2+ delay” value (BCL 150, 4-AP 7 mM) was −5.24 ± 2.31 and the “APD80 (action potential duration)” value (BCL 200, 4-AP 7 mM) was 55.28 ± 2.94. For the same compound, the “CVL (longitudinal conduction velocity)” value (BCL 200, 4-AP 7 mM) was 0.56 ± 0.09, the “CVT (transverse conduction velocity)” value (BCL 200, 4-AP 7 mM) was 0.30 ± 0.05 and the “Ca2+ RT (rise time)” value (BCL 200, 4-AP 7 mM) was 9.14 ± 1.31. The “Ca t (calcium decay time constant)” value (BCL 200, 4-AP 7 mM) was 39.09 ± 5.88, the “CaTD80 (calcium transient duration)” value (BCL 200, 4-AP 7 mM) was 106.68 ± 19.92 and the “NADH fluorescence intensity (normalized to first recording of the heart)” value (BCL 200, 4-AP 7 mM) was 0.99 ± 0.07. The “Vm RT (rise time)” value (BCL 200, 4-AP 7 mM) was 4.72 ± 0.28 and the “Vm-Ca2+ delay” value (BCL 200, 4-AP 7 mM) was −8.14 ± 4.48.
`Cc1ccc2c(c1)C(=O)C1(O)CCN(c3ccccc3)C1=N2` (centres unmarked) [Blebbistatin, blebbistatin] was tested, and the “Change in CVT (in words)” value was “faster”, the “Change in Ca2+ RT (in words)” value was “increased” and the “Change in NADH intensity (in words)” value was “reduced”. For the same compound, the “Number of the 10 measured parameters altered” value was 2 and the “Effect on contractions of the heart (electromechanical uncoupling)” value (blebbistatin) was “abolished contractions”.
